These results are taken from publication PMC11995724, “Antibiotic target discovery by integrated phenotypic and activity-based profiling of electrophilic fragments” (Cell chemical biology, 2025).

The viability is a read-out of living cells in per cent, often relative to untreated cells.

A short description of the data set: in vitro. The conditions noted are these: human, hek293t cells.
Take `O=C(CCl)NC(Cc1ccccc1)c1ccccc1` (stereo not drawn) [4-L11, 2-chloro-N-(1,2-diphenylethyl)acetamide]: the viability at 48 h, 25 µM turned out to be 0.317%.
As for `Cc1cccc(C=C(C#N)C(=O)Nc2ccc(F)cc2)c1` [9-I19, 2-cyano-N-(4-fluorophenyl)-3-(3-methylphenyl)prop-2-enamide], the viability at 48 h, 25 µM stood at 113%.
Consider `O=C(CCl)N1CC(S(=O)(=O)Nc2ccccc2)C1` [5-G10, 1-(2-chloroacetyl)-N-phenylazetidine-3-sulfonamide], for which the viability at 48 h, 25 µM was 1.28%.
On to `C=CC(=O)N1CCC(C(=O)Nc2ccc(N)c([N+](=O)[O-])c2)CC1` [3-E20, N-(4-amino-3-nitrophenyl)-1-(prop-2-enoyl)piperidine-4-carboxamide], for which the viability at 48 h, 25 µM turned out to be 56.7%.
In the case of `C=CC(=O)N1CCC(C(=O)OCC)(S(C)(=O)=O)CC1` [3-H04, ethyl 4-methanesulfonyl-1-(prop-2-enoyl)piperidine-4-carboxylate], the viability at 48 h, 25 µM was determined as 93.3%.
In the case of `COc1ccc(Cl)cc1NC(=O)C(C)Cl` (stereo not drawn) [6-G16, 2-chloro-N-(5-chloro-2-methoxyphenyl)propanamide], the viability at 48 h, 25 µM stood at 112%.
The result for `COc1cccc(C=C(C#N)C(=O)Nc2ccccc2C(=O)O)c1` [9-G08, 2-[2-cyano-3-(3-methoxyphenyl)prop-2-enamido]benzoic acid] reads 102%; that for `Cc1ccc(C(=O)C(C)Cl)cc1C` (stereo not drawn) [10-B20, 2-chloro-1-(3,4-dimethylphenyl)propan-1-one], 85%; that for `Cc1ccc2[nH]c3c(c2c1)CCCC3N(C)C(=O)CCl` (stereo not drawn) [6-H07, 2-chloro-N-methyl-N-(6-methyl-2,3,4,9-tetrahydro-1H-carbazol-1-yl)acetamide], 0.1%.
With `O=C(CCl)NCc1[nH]nc2c1CCCC2` [6-E04, 2-chloro-N-[(4,5,6,7-tetrahydro-2H-indazol-3-yl)methyl]acetamide], the viability at 48 h, 25 µM worked out at 59.9%.
Consider `C=CC(=O)Nc1ccnn1CC1CC1` [3-G09, N-[1-(cyclopropylmethyl)-1H-pyrazol-5-yl]prop-2-enamide], for which the viability at 48 h, 25 µM stood at 41.5%.
On to `Cc1c(C#N)c(NC(=O)CCl)n(Cc2ccccc2)c1C` [4-M21, N-(1-benzyl-3-cyano-4,5-dimethyl-1H-pyrrol-2-yl)-2-chloroacetamide], for which the viability at 48 h, 25 µM was -0.247%.
The result for `Cc1cccc(C)c1NC(=O)C(C#N)=Cc1ccc(C(=O)O)cc1` [9-G17, 4-{2-cyano-2-[(2,6-dimethylphenyl)carbamoyl]eth-1-en-1-yl}benzoic acid] reads 111%; that for `C=CC(=O)NCc1ccnc(N2CCN(c3ccc(F)cc3)CC2)c1` [1-M11, N-({2-[4-(4-fluorophenyl)piperazin-1-yl]pyridin-4-yl}methyl)prop-2-enamide], 71.6%; that for `C=CC(=O)N(CC(C)(C)C)C1CCN(c2ccc(C#N)cn2)CC1` [1-N09, N-[1-(5-cyanopyridin-2-yl)piperidin-4-yl]-N-(2,2-dimethylpropyl)prop-2-enamide], 105%.
For the compound `Cc1nc(C)c(S(=O)(=O)N2CCSSCC2)s1` [10-M18, 5-[(2,4-dimethyl-1,3-thiazol-5-yl)sulfonyl]-1,2,5-dithiazepane], the viability at 48 h, 25 µM stood at 90.2%.
As for `O=C1CCc2cc(C(=O)CCl)c(F)cc2N1` [10-O20, 6-(2-chloroacetyl)-7-fluoro-1,2,3,4-tetrahydroquinolin-2-one], the viability at 48 h, 25 µM turned out to be 11.9%.
`CC(Cl)C(=O)NC(CC1CCCCC1)c1ncccn1` (stereo not drawn) [7-H13, 2-chloro-N-[2-cyclohexyl-1-(pyrimidin-2-yl)ethyl]propanamide]: the viability at 48 h, 25 µM amounted to 91.2%.
The result for `C=CC(=O)NC(=O)NCc1ccccc1` [1-I04, 1-benzyl-3-(prop-2-enoyl)urea] reads 0.515%; that for `COc1ccc(Cl)cc1C(O)CNC(=O)CCl` (stereo not drawn) [7-N06, 2-chloro-N-[2-(5-chloro-2-methoxyphenyl)-2-hydroxyethyl]acetamide], 0.942%.
Consider `C=CC(=O)N1CCOCC1CC(=O)c1ccco1` (stereo not drawn) [2-M17, 1-{3-[2-(furan-2-yl)-2-oxoethyl]morpholin-4-yl}prop-2-en-1-one], for which the viability at 48 h, 25 µM was found to be 194%.
The result for `C=CC(=O)NCCc1nnc(C(C)C)s1` [2-L05, N-{2-[5-(propan-2-yl)-1,3,4-thiadiazol-2-yl]ethyl}prop-2-enamide] reads 61.9%.
For the compound `O=C(CCl)NC(c1ccc(F)cc1)c1cccs1` (stereo not drawn) [4-K18, 2-chloro-N-[(4-fluorophenyl)(thiophen-2-yl)methyl]acetamide], the viability at 48 h, 25 µM is 0.21%.
`C=CC(=O)N1CCC(C(=O)N2CCCC(C)(CC)C2)CC1` (stereo not drawn) [2-J10, 1-[4-(3-ethyl-3-methylpiperidine-1-carbonyl)piperidin-1-yl]prop-2-en-1-one]: the viability at 48 h, 25 µM was 67.4%.
`CC(NC(=O)CCl)c1nnc(-c2ccccc2F)s1` (stereo not drawn) [7-L21, 2-chloro-N-{1-[5-(2-fluorophenyl)-1,3,4-thiadiazol-2-yl]ethyl}acetamide]: the viability at 48 h, 25 µM stood at 0.564%.
Turning to `C=CC(=O)N1CCCC(n2cncn2)C1` (stereo not drawn) [2-C03, 1-[3-(1H-1,2,4-triazol-1-yl)piperidin-1-yl]prop-2-en-1-one], the viability at 48 h, 25 µM stood at 90.2%.
For the compound `COc1ccc([N+](=O)[O-])cc1NC(=O)C(C)Cl` (stereo not drawn) [5-N14, 2-chloro-N-(2-methoxy-5-nitrophenyl)propanamide], the viability at 48 h, 25 µM was found to be 96.3%.
Turning to `CC(C)CN(C(=O)CCl)C1CCS(=O)(=O)C1` (stereo not drawn) [4-D12, 2-chloro-N-(1,1-dioxo-1lambda6-thiolan-3-yl)-N-(2-methylpropyl)acetamide], the viability at 48 h, 25 µM is 2.44%.
`C=CC(=O)NCCC1CCCS1(=O)=O` (stereo not drawn) [3-C12, N-[2-(1,1-dioxo-1lambda6-thiolan-2-yl)ethyl]prop-2-enamide]: the viability at 48 h, 25 µM is 86.1%.
Regarding `C=CC(=O)N1CCOCC1c1noc(C)n1` (stereo not drawn) [3-O11, 1-[3-(5-methyl-1,2,4-oxadiazol-3-yl)morpholin-4-yl]prop-2-en-1-one], the viability at 48 h, 25 µM is 51.5%.
In the case of `COC(=O)C1(NC(=O)CCl)CC1` [6-I06, methyl 1-(2-chloroacetamido)cyclopropane-1-carboxylate], the viability at 48 h, 25 µM was 101%.
Take `CC(Cl)C(=O)N1CCCC(n2ncc(N(C)C(C)C)cc2=O)C1` (stereo not drawn) [6-H09, 2-[1-(2-chloropropanoyl)piperidin-3-yl]-5-[methyl(propan-2-yl)amino]-2,3-dihydropyridazin-3-one]: the viability at 48 h, 25 µM worked out at 97.3%.
As to `CC(Cl)C(=O)NC(c1ccccc1)c1ccccc1` (stereo not drawn) [5-A21, 2-chloro-N-(diphenylmethyl)propanamide], the viability at 48 h, 25 µM turned out to be 85.8%.
As for `O=C(CCl)NC1CN(S(=O)(=O)c2ccc3c(c2)OCCO3)C1` [5-I16, 2-chloro-N-[1-(2,3-dihydro-1,4-benzodioxine-6-sulfonyl)azetidin-3-yl]acetamide], the viability at 48 h, 25 µM was determined as 2.6%.
On to `C=CC(=O)NCC1CCc2nnc(C(C)C)n2C1` (stereo not drawn) [2-J03, N-{[3-(propan-2-yl)-5H,6H,7H,8H-[1,2,4]triazolo[4,3-a]pyridin-6-yl]methyl}prop-2-enamide], for which the viability at 48 h, 25 µM amounted to 60.6%.
`O=C(CCl)N1N=C(c2ccc(Cl)cc2)CC1c1ccco1` (stereo not drawn) [5-L04, 2-chloro-1-[3-(4-chlorophenyl)-5-(furan-2-yl)-4,5-dihydro-1H-pyrazol-1-yl]ethan-1-one]: the viability at 48 h, 25 µM was -0.215%.
For the compound `CC(Cl)C(=O)N1CCN(CC(F)(F)F)CC1C(C)C` (stereo not drawn) [7-C22, 2-chloro-1-[2-(propan-2-yl)-4-(2,2,2-trifluoroethyl)piperazin-1-yl]propan-1-one], the viability at 48 h, 25 µM is 91.5%.
On to `O=C(CCl)c1ccoc1` [10-O09, 2-chloro-1-(furan-3-yl)ethan-1-one], for which the viability at 48 h, 25 µM worked out at 76.8%.
With `COc1ccc(N2C(=O)C=CC2=O)c([N+](=O)[O-])c1` [10-L11, 1-(4-methoxy-2-nitrophenyl)-2,5-dihydro-1H-pyrrole-2,5-dione], the viability at 48 h, 25 µM is 100%.
The result for `C=CC(=O)NC(CO)c1nc(C)no1` (stereo not drawn) [1-C05, N-[2-hydroxy-1-(3-methyl-1,2,4-oxadiazol-5-yl)ethyl]prop-2-enamide] reads 71.4%; that for `Cc1ccc(N(CCC#N)C(=O)CCl)cc1C` [4-A03, 2-chloro-N-(2-cyanoethyl)-N-(3,4-dimethylphenyl)acetamide], 0.265%.
Take `Cc1ccc(-n2c(C)cc(C(=O)CCl)c2C)cc1C` [10-B14, 2-chloro-1-[1-(3,4-dimethylphenyl)-2,5-dimethyl-1H-pyrrol-3-yl]ethan-1-one]: the viability at 48 h, 25 µM is 0.754%.
For the compound `C=CC(=O)Nc1cnn(-c2ccccc2C)c1C(F)F` [1-E22, N-[5-(difluoromethyl)-1-(2-methylphenyl)-1H-pyrazol-4-yl]prop-2-enamide], the viability at 48 h, 25 µM was determined as 116%.
The result for `C=CC(=O)NC(C1CCC1)C1CCOC1` (stereo not drawn) [1-O22, N-[cyclobutyl(oxolan-3-yl)methyl]prop-2-enamide] reads 113%; that for `C=CC(=O)Nc1ccc(C)cc1S(=O)(=O)N1CCOCC1` [1-O13, N-[4-methyl-2-(morpholine-4-sulfonyl)phenyl]prop-2-enamide], 74.9%.
Consider `N#Cc1nc(-c2ccco2)oc1N1CCN(C(=O)CCl)CC1` [4-B22, 5-[4-(2-chloroacetyl)piperazin-1-yl]-2-(furan-2-yl)-1,3-oxazole-4-carbonitrile], for which the viability at 48 h, 25 µM was determined as 0.503%.
The result for `O=C(CCl)NCc1ccc(Cl)c(C(F)(F)F)c1` [7-D22, 2-chloro-N-{[4-chloro-3-(trifluoromethyl)phenyl]methyl}acetamide] reads 0.676%.
With `C=CC(=O)NCc1ccc(-n2cccn2)cc1` [1-M07, N-{[4-(1H-pyrazol-1-yl)phenyl]methyl}prop-2-enamide], the viability at 48 h, 25 µM was determined as 81.4%.
Turning to `N#CC(=Cc1ccccc1)C(=O)NC1CCCCCCC1` [8-G17, 2-cyano-N-cyclooctyl-3-phenylprop-2-enamide], the viability at 48 h, 25 µM came out at 46.6%.
Turning to `C=CC(=O)NCC(=O)Nc1ccc2c[nH]nc2c1` [1-L11, N-{[(2H-indazol-6-yl)carbamoyl]methyl}prop-2-enamide], the viability at 48 h, 25 µM is 89.7%.
On to `C=CC(=O)NC1(c2nc(C)no2)CC1` [3-L09, N-[1-(3-methyl-1,2,4-oxadiazol-5-yl)cyclopropyl]prop-2-enamide], for which the viability at 48 h, 25 µM was 46.8%.
